From patent US8440698B2, “3-(4-((1H-imidazol-1-yl)methyl)phenyl)-5-aryl-1,2,4-oxadiazole derivatives as sphingosine-1 phosphate receptors modulators” (Allergan, Inc., priority 2010, dated 2013)

Target: T1, human S1P1 receptor (Homo sapiens, UniProt P21453)
T1 construct: expressed in transfected cells; membranes used
Assay: GTP γ35S binding assay for S1P1 activity
Format: biochemical
Conditions: for Emax at 5 µM: intrinsic activity at 5 μM, read-out: % S1P1 STIMULATION @ 5 μM; for EC50: membranes of cells stably expressing S1P1, test concentrations 0.08 to 5,000 nM, read-out: S1P1 GTPγ^35S EC50
Protocol: Novel compounds were synthesized and tested for S1P1 activity using the GTP γ^35S binding assay. These compounds may be assessed for their ability to activate or block activation of the human S1P1 receptor in cells stably expressing the S1P1 receptor. GTP γ^35S binding was measured in the medium containing (mM) HEPES 25, pH 7.4, MgCl2 10, NaCl 100, dithitothreitol 0.5, digitonin 0.003%, 0.2 nM GTP γ^35S, and 5 μg membrane protein in a volume of 150 μl. Test compounds were included in the concentration range from 0.08 to 5,000 nM unless indicated otherwise. Membranes were incubated with 100 μM 5′-adenylylimmidodiphosphate for 30 min, and subsequently with 10 μM GDP for 10 min on ice. Drug solutions and membrane were mixed, and then reactions were initiated by adding GTP γ^35S and continued for 30 min at 25° C. Reaction mixtures were filtered over Whatman GF/B filters under vacuum, and washed three times with 3 mL of ice-cold buffer (HEPES 25, pH7.4, MgCl2 10 and NaCl 100). Filters were dried and mixed with scintillant, and counted for ^35S activity using a β-counter. Agonist-induced GTP γ^35S binding was obtained by subtracting that in the absence of agonist. Binding data were analyzed using a non-linear regression method. In case of antagonist assay, the reaction mixture contained 10 nM S1P in the presence of test antagonist at concentrations ranging from 0.08 to 5000 nM.

T1 sequence (P21453 whole entry): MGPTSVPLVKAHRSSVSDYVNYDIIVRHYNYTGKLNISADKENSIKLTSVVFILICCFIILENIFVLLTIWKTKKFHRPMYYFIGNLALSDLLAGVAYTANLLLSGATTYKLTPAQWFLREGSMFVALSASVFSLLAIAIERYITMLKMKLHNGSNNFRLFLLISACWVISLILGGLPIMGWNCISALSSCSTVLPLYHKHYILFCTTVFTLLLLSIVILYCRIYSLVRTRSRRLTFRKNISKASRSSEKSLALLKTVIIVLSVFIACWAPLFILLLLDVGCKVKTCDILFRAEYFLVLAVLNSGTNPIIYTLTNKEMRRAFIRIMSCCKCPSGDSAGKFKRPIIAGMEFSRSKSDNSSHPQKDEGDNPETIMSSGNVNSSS

Emax at 5 µM	EC50	Compound
92.3%	0.00879 µM	CC(C)Oc1ccc(-c2nc(-c3ccc(Cn4ccnc4)cc3Cl)no2)cc1[N+](=O)[O-] [3-[2-chloro-4-(1H-imidazol-1-ylmethyl)phenyl]-5-(4-isopropoxy-3-nitrophenyl)-1,2,4-oxadiazole]
80.9%	0.0624 µM	CC(C)Oc1ccc(-c2nc(-c3ccc(Cn4ccnc4)cc3C(F)(F)F)no2)cc1C(F)(F)F [3-[4-(1H-imidazol-1-ylmethyl)-2-(trifluoromethyl)phenyl]-5-[4-isopropoxy-3-(trifluoromethyl)phenyl]-1,2,4-oxadiazole]
102%	0.0297 µM	CC(C)Oc1ccc(-c2nc(-c3ccc(Cn4ccnc4)cc3Cl)no2)cc1Br [5-(3-bromo-4-isopropoxyphenyl)-3-[2-chloro-4-(1H-imidazol-1-ylmethyl)phenyl]-1,2,4-oxadiazole]
89.6%	0.119 µM	FC(F)(F)c1cc(Cn2ccnc2)ccc1-c1noc(-c2ccc(OC3CC3)c(Br)c2)n1 [5-[3-bromo-4-(cyclopropyloxy)phenyl]-3-[4-(1H-imidazol-1-ylmethyl)-2-(trifluoromethyl)phenyl]-1,2,4-oxadiazole]
94.9%	0.00456 µM	CC(C)Oc1ccc(-c2nc(-c3ccc(Cn4ccnc4)cc3Cl)no2)cc1C#N [5-{3-[2-chloro-4-(1H-imidazol-1-ylmethyl)phenyl]-1,2,4-oxadiazol-5-yl}-2-isopropoxybenzonitrile]
99.9%	0.13 µM	CC1CCCCN1c1ccc(-c2nc(-c3ccc(Cn4ccnc4)cc3)no2)cc1C#N (stereo not shown) [5-{3-[4-(1H-imidazol-1-ylmethyl)phenyl]-1,2,4-oxadiazol-5-yl}-2-(2-methylpiperidin-1-yl)benzonitrile]
96%	0.032 µM	Cc1cc(Cn2ccnc2)ccc1-c1noc(-c2ccc(OC3CC3)c(Br)c2)n1 [Compound 2, 5-(3-Bromo-4-cyclopropoxy-phenyl)-3-(4-imidazol-1-ylmethyl-2-methyl-phenyl)-[1,2,4]oxadiazole]
95.6%	0.00051 µM	CC(C)Oc1ccc(-c2nc(-c3ccc(Cn4ccnc4)cc3)no2)cc1C(F)(F)F [Compound 3, 3-(4-Imidazol-1-ylmethyl-phenyl)-5-(4-isopropoxy-3-trifluoromethyl-phenyl)-[1,2,4]oxadiazole]
94.6%	0.00331 µM	CC(C)Oc1ccc(-c2nc(-c3ccc(Cn4ccnc4)cc3)no2)cc1C#N [Compound 12, 5-[3-(4-Imidazol-1-ylmethyl-phenyl)-[1,2,4]oxadiazol-5-yl]-2-isopropoxy-benzonitrile]
93.9%	0.00092 µM	CC(C)Oc1ccc(-c2nc(-c3ccc(Cn4ccnc4)cc3)no2)cc1Br [Compound 14, 5-(3-Bromo-4-isopropoxy-phenyl)-3-(4-imidazol-1-ylmethyl-phenyl)-[1,2,4]oxadiazole]
99.8%	0.00279 µM	CC(C)Oc1ccc(-c2nc(-c3ccc(Cn4ccnc4)cc3)no2)cc1Cl [Compound 16, 5-(3-Chloro-4-isopropoxy-phenyl)-3-(4-imidazol-1-ylmethyl-phenyl)-[1,2,4]oxadiazole]
94.6%	0.0198 µM	Cc1cc(-c2nc(-c3ccc(Cn4ccnc4)cc3C)no2)ccc1OC(C)C [Compound 18, 3-(4-Imidazol-1-ylmethyl-2-methyl-phenyl)-5-(4-isopropoxy-3-methyl-phenyl)-[1,2,4]oxadiazole]

More lines, now with the values behind:

Compound	Emax at 5 µM	EC50
CC(C)Oc1ccc(-c2nc(-c3ccc(Cn4ccnc4)cc3Cl)no2)cc1C(F)(F)F [3-[2-chloro-4-(1H-imidazol-1-ylmethyl)phenyl]-5-[4-isopropoxy-3-(trifluoromethyl)phenyl]-1,2,4-oxadiazole]	79.6%	0.00355 µM
Cc1cc(-c2nc(-c3ccc(Cn4ccnc4)cc3C(F)(F)F)no2)ccc1OC(C)C [3-[4-(1H-imidazol-1-ylmethyl)-2-(trifluoromethyl)phenyl]-5-(4-isopropoxy-3-methylphenyl)-1,2,4-oxadiazole]	7.4%	
CC(C)Oc1ccc(-c2nc(-c3ccc(Cn4ccnc4)cc3C(F)(F)F)no2)cc1[N+](=O)[O-] [3-[4-(1H-imidazol-1-ylmethyl)-2-(trifluoromethyl)phenyl]-5-(4-isopropoxy-3-nitrophenyl)-1,2,4-oxadiazole]	79.4%	0.00637 µM
CC(C)Oc1ccc(-c2nc(-c3ccc(Cn4ccnc4)cc3C(F)(F)F)no2)cc1Br [5-(3-Bromo-4-isopropoxy-phenyl)-3-(4-imidazol-1-ylmethyl-2-trifluoromethyl-phenyl)-[1,2,4]oxadiazole]	100%	0.102 µM
CC(C)COc1ccc(-c2nc(-c3ccc(Cn4ccnc4)cc3C(F)(F)F)no2)cc1Br [5-(3-bromo-4-isobutoxyphenyl)-3-[4-(1H-imidazol-1-ylmethyl)-2-(trifluoromethyl)phenyl]-1,2,4-oxadiazole]	98.3%	0.144 µM
CC(C)Oc1ccc(-c2nc(-c3ccc(Cn4ccnc4)cc3C(F)(F)F)no2)cc1C#N [5-[3-(4-Imidazol-1-ylmethyl-2-trifluoromethyl-phenyl)-[1,2,4]oxadiazol-5-yl]-2-isopropoxy-benzonitrile]	97.6%	0.00522 µM
Brc1cc(-c2nc(-c3ccc(Cn4ccnc4)cc3)no2)ccc1OC1CC1 [Compound 1, 5-(3-Bromo-4-cyclopropoxy-phenyl)-3-(4-imidazol-1-ylmethyl-phenyl)-[1,2,4]oxadiazole]	99.9%	0.0144 µM
CC(C)COc1ccc(-c2nc(-c3ccc(Cn4ccnc4)cc3)no2)cc1C(F)(F)F [Compound 4, 3-(4-Imidazol-1-ylmethyl-phenyl)-5-(4-isobutoxy-3-trifluoromethyl-phenyl)-[1,2,4]oxadiazole]	72.2%	0.998 µM
FC(F)(F)c1cc(-c2nc(-c3ccc(Cn4ccnc4)cc3)no2)ccc1OC1CCCCC1 [Compound 5, 5-(4-Cyclohexyloxy-3-trifluoromethyl-phenyl)-3-(4-imidazol-1-ylmethyl-phenyl)-[1,2,4]oxadiazole]	91.8%	0.149 µM
Cc1cc(Cn2ccnc2)ccc1-c1noc(-c2ccc(OC(C)C)c(C(F)(F)F)c2)n1 [Compound 6, 3-(4-Imidazol-1-ylmethyl-2-methyl-phenyl)-5-(4-isopropoxy-3-trifluoromethyl-phenyl)-[1,2,4]oxadiazole]	95.5%	0.00338 µM
CC(C)Oc1ccc(-c2nc(-c3ccc(Cn4ccnc4)cc3)no2)cc1[N+](=O)[O-] [Compound 7, 3-(4-Imidazol-1-ylmethyl-phenyl)-5-(4-isopropoxy-3-nitro-phenyl)-[1,2,4]oxadiazole]	118%	0.00324 µM
CC(C)COc1ccc(-c2nc(-c3ccc(Cn4ccnc4)cc3)no2)cc1C#N [Compound 8, 5-[3-(4-Imidazol-1-ylmethyl-phenyl)-[1,2,4]oxadiazol-5-yl]-2-isobutoxy-benzonitrile]	75.9%	0.062 µM
CC(C)COc1ccc(-c2nc(-c3ccc(Cn4ccnc4)cc3)no2)cc1Br [Compound 9, 5-(3-Bromo-4-isobutoxy-phenyl)-3-(4-imidazol-1-ylmethyl-phenyl)-[1,2,4]oxadiazole]	86.2%	0.0286 µM
CC(C)Cc1ccc(-c2nc(-c3ccc(Cn4ccnc4)cc3)no2)cc1 [Compound 10, 3-(4-Imidazol-1-ylmethyl-phenyl)-5-(4-isobutyl-phenyl)-[1,2,4]oxadiazole]	79.8%	0.543 µM
CC(C)Oc1ccc(-c2nc(-c3ccc(Cn4ccnc4)cc3)no2)cc1 [Compound 11, 3-(4-Imidazol-1-ylmethyl-phenyl)-5-(4-isopropoxy-phenyl)-[1,2,4]oxadiazole]	92.8%	0.453 µM
Cc1cc(Cn2ccnc2)ccc1-c1noc(-c2ccc(OC(C)C)c(C#N)c2)n1 [Compound 13, 5-[3-(4-Imidazol-1-ylmethyl-2-methyl-phenyl)-[1,2,4]oxadiazol-5-yl]-2-isopropoxy-benzonitrile]	96.4%	0.00476 µM
Cc1cc(Cn2ccnc2)ccc1-c1noc(-c2ccc(OC(C)C)c(Br)c2)n1 [Compound 15, 5-(3-Bromo-4-isopropoxy-phenyl)-3-(4-imidazol-1-ylmethyl-2-methyl-phenyl)-[1,2,4]oxadiazole]	109%	0.0196 µM
Cc1cc(-c2nc(-c3ccc(Cn4ccnc4)cc3)no2)ccc1OC(C)C [Compound 17, 3-(4-Imidazol-1-ylmethyl-phenyl)-5-(4-isopropoxy-3-methyl-phenyl)-[1,2,4]oxadiazole]	133%	0.0103 µM
Cc1cc(Cn2ccnc2)ccc1-c1noc(-c2ccc(OC(C)C)c([N+](=O)[O-])c2)n1 [Compound 19, 3-(4-Imidazol-1-ylmethyl-2-methyl-phenyl)-5-(4-isopropoxy-3-nitro-phenyl)-[1,2,4]oxadiazole]	102%	0.00898 µM
